Laboratory results reported in PubChem BioAssay (NCI).
Several values for one entry are separate records, joined by “and”; a condition that tells them apart may be missing. Identical values can stand only once.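 Interpolation was linear, between the two tested concentrations surrounding the appropriate level; five concentrations were tested over 48 hours in 96-well plates. GI50 = concentration required for 50% inhibition of growth. TGI: concentration producing complete growth inhibition.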

Experiments:
Assay in all cases: DTP human tumour cell line panel, 48 h
[1] = system: SK-MEL-2 melanoma
[2] = system: M14 melanoma
[3] = system: SF-268 CNS
[4] = system: COLO 205 colon
[5] = system: K-562 leukemia
[6] = system: OVCAR-8 ovarian
[7] = system: MDA-MB-231 breast
[8] = system: SK-MEL-28 melanoma
[9] = system: OVCAR-4 ovarian
[10] = system: HT29 colon

## CN(C)CCNC(=O)c1cccc2ccc(-c3ccc(O)cc3)nc12
[1]
  TGI: 15.9 µM and 9.73 µM
[2]
  TGI: 2.75 µM
[3]
  TGI: 17.3 µM and 19.3 µM
[4]
  GI50: 2.31 µM
  TGI: 14.6 µM and 14.4 µM
[5]
  TGI: 3.96 µM
[6]
  TGI: 4.13 µM
[7]
  TGI: 11.6 µM
[8]
  GI50: 4.14 µM
  TGI: 11.8 µM and 16.2 µM
[9]
  TGI: 10.4 µM and 12.2 µM
[10]
  TGI: 14.5 µM and 17.2 µM

## COc1cccc(C2CC(C)(O)Oc3cc4c(cc32)OCO4)c1O (stereo not given)
[1]
  TGI: > 80.4 µM
[2]
  TGI: > 65.8 µM
[3]
  TGI: > 91.2 µM
[4]
  TGI: 41.3 µM
[5]
  TGI: > 53.6 µM
[6]
  TGI: 67.8 µM
[7]
  TGI: 67.7 µM
[8]
  TGI: > 100 µM
[9]
  TGI: > 100 µM
[10]
  TGI: 50.6 µM

## C/C=C(\C)C(=O)O[C@H]1C=CC(=O)O[C@H]1CCC(=O)[C@H](C)O
[1]
  GI50: 19.1 µM
  TGI: 47.3 µM
[2]
  GI50: 14.6 µM
  TGI: 32.8 µM
[3]
  GI50: 11.3 µM
  TGI: 26.1 µM
[4]
  GI50: 6.07 µM
  TGI: 22.6 µM
[5]
  GI50: 4.92 µM
  TGI: 22.2 µM
[6]
  GI50: 20.7 µM
  TGI: 52.8 µM
[7]
  GI50: 16.8 µM
  TGI: 32.4 µM
[8]
  GI50: 9.9 µM
  TGI: 24.6 µM
[9]
  GI50: 11.9 µM
  TGI: 25.4 µM
[10]
  GI50: 8.61 µM
  TGI: 23.5 µM

## COc1ccccc1/C=N\N/C(N)=N\N=C\c1ccccc1OC
[1]
  GI50: 0.527 µM
  TGI: 10.3 µM
[2]
  GI50: 0.266 µM
  TGI: 3.13 µM
[3]
  GI50: 0.432 µM
  TGI: 26.9 µM
[4]
  GI50: 0.232 µM
  TGI: 0.631 µM
[5]
  GI50: 0.263 µM
  TGI: 1.7 µM
[6]
  GI50: 0.301 µM
  TGI: 17.5 µM
[7]
  GI50: 2.58 µM
  TGI: > 60.3 µM
[8]
  GI50: 2.64 µM
  TGI: 28.4 µM
[9]
  GI50: 1.05 µM
  TGI: > 100 µM
[10]
  GI50: 0.382 µM
  TGI: > 55.8 µM

## COc1cccc(CC(C)=C(c2ccc(OCCN(C)C)cc2)c2ccc(OCCN(C)C)cc2)c1
[1]
  GI50: 5.19 µM
  TGI: 10.9 µM
[2]
  GI50: 0.612 µM
  TGI: 1.2 µM
[3]
  GI50: 4.03 µM
  TGI: 8.69 µM
[4]
  GI50: 0.626 µM
  TGI: 1.31 µM
[5]
  GI50: 0.614 µM
  TGI: 1.77 µM
[6]
  GI50: 2.04 µM
  TGI: 6.71 µM
[7]
  GI50: 1.1 µM
  TGI: 4.69 µM
[8]
  GI50: 0.602 µM
  TGI: 1.1 µM
[9]
  GI50: 3.53 µM
  TGI: 8.16 µM
[10]
  GI50: 0.706 µM
  TGI: 1.91 µM

## COc1cccc(F)c1C(=O)c1cnc(NC2CCN(S(C)(=O)=O)CC2)nc1N
[1]
  GI50: 3.43 µM
  TGI: 9.94 µM
[2]
  GI50: 5.33 µM
  TGI: > 25 µM
[3]
  GI50: 5.96 µM
  TGI: > 21.4 µM
[4]
  GI50: 1.49 µM
  TGI: 5.69 µM
[5]
  GI50: 6.55 µM
  TGI: > 25 µM
[6]
  GI50: 4.08 µM
  TGI: > 25 µM
[7]
  GI50: 2.74 µM
  TGI: > 22.1 µM
[8]
  GI50: 3.43 µM
  TGI: > 20.8 µM
[9]
  GI50: 5.61 µM
  TGI: > 25 µM
[10]
  GI50: 2.54 µM
  TGI: 23.3 µM

## CC1(C)N=C(N)N=C(N)N1c1ccc(CCCCc2ccc(Cl)cc2S(=O)(=O)F)c(Cl)c1
[1]
  GI50: 3.07 µM
  TGI: 25.1 µM
[2]
  GI50: 0.421 µM
  TGI: 17.8 µM
[3]
  GI50: 0.493 µM
  TGI: 17.7 µM
[4]
  GI50: 0.522 µM
  TGI: 2.53 µM
[5]
  GI50: 0.073 µM
  TGI: 13.8 µM
[6]
  GI50: 0.499 µM
  TGI: 16.8 µM
[7]
  GI50: 0.993 µM
  TGI: 11.4 µM
[8]
  GI50: 0.965 µM
  TGI: 8.46 µM
[9]
  GI50: 3.11 µM
  TGI: 19.2 µM
[10]
  GI50: 0.374 µM
  TGI: 14.5 µM

## CC(=O)OC1COC(Oc2c(C)c3c4c(c2O)[C@@H](C)CC[C@@H]4[C@@H](C)C[C@H]3C=C(C)C)C(O)C1OC(C)=O (stereo not given in full)
[1]
  GI50: 17.9 µM
  TGI: 42.1 µM
[2]
  GI50: 13.7 µM
  TGI: 27.8 µM
[3]
  GI50: 27.6 µM
  TGI: > 100 µM
[4]
  GI50: 15.5 µM
  TGI: 57.4 µM
[5]
  GI50: 12.5 µM
  TGI: 32.8 µM
[6]
  GI50: 16 µM
  TGI: 32.9 µM
[7]
  GI50: 16.2 µM
  TGI: 31.9 µM
[8]
  GI50: 25.4 µM
  TGI: 56.2 µM
[9]
  GI50: 21.6 µM
  TGI: 49.3 µM
[10]
  GI50: 25.6 µM
  TGI: 74.4 µM

## N#Cc1c(N)nc(N2CCOCC2)c(C#N)c1-c1ccncc1
[1]
  GI50: > 100 µM
  TGI: > 100 µM
[2]
  GI50: > 100 µM
  TGI: > 100 µM
[3]
  GI50: > 100 µM
  TGI: > 100 µM
[4]
  GI50: > 100 µM
  TGI: > 100 µM
[5]
  GI50: > 100 µM
  TGI: > 100 µM
[6]
  GI50: > 100 µM
  TGI: > 100 µM
[7]
  GI50: 21.6 µM
  TGI: > 100 µM
[8]
  GI50: > 100 µM
  TGI: > 100 µM
[9]
  GI50: > 100 µM
  TGI: > 100 µM
[10]
  GI50: > 100 µM
  TGI: > 100 µM

## COC(=O)C[C@](O)(CCCC(C)(C)O)C(=O)O[C@@H]1C(OC)=C[C@]23CCCN2CCc2cc4c(cc2[C@H]13)OCO4
[1]
  GI50: 0.0455 µM
  TGI: 0.994 µM and 0.198 µM
[2]
  GI50: 0.0228 µM
[3]
  GI50: 0.046 µM
  TGI: 0.99 µM and 0.446 µM
[4]
  GI50: 0.0283 µM
[5]
  GI50: 0.0292 µM
[6]
  GI50: 0.0287 µM
[7]
  GI50: 0.087 µM
[8]
  GI50: 0.0222 µM
[9]
  GI50: 0.0221 µM
  TGI: 1.15 µM and 0.149 µM
[10]
  GI50: 0.0183 µM

## CC[As](CC)SC[C@H](C)C(=O)N1CCC[C@H]1C(=O)O
[1]
  GI50: 0.522 µM
  TGI: 1.77 µM
[2]
  GI50: 0.0257 µM
  TGI: 0.0895 µM
[3]
  GI50: 0.249 µM
  TGI: 1 µM
[4]
  GI50: 0.0344 µM
  TGI: 0.14 µM
[5]
  GI50: < 0.01 µM
  TGI: 0.0615 µM
[6]
  GI50: 0.123 µM
  TGI: 0.472 µM
[7]
  GI50: 0.0686 µM
  TGI: 0.301 µM
[8]
  GI50: 0.055 µM
  TGI: 0.212 µM
[9]
  GI50: 0.334 µM
  TGI: 1.13 µM
[10]
  GI50: 0.339 µM
  TGI: > 100 µM

## COc1cc(-c2oc(=O)ccc2C#Cc2ccccn2)cc(OC)c1OC
[1]
  GI50: 4.15 µM
  TGI: > 100 µM
[2]
  GI50: 2.74 µM
  TGI: > 32.4 µM
[3]
  GI50: 5.56 µM
  TGI: > 100 µM
[4]
  GI50: 3.72 µM
  TGI: > 30.9 µM
[5]
  GI50: 0.646 µM
  TGI: > 100 µM
[6]
  GI50: 3.89 µM
  TGI: > 100 µM
[7]
  GI50: 3.57 µM
  TGI: > 72.4 µM
[8]
  GI50: 3.34 µM
  TGI: > 100 µM
[9]
  GI50: 9.65 µM
  TGI: > 100 µM
[10]
  GI50: 0.607 µM
  TGI: > 21 µM

## CC(C)C1=CC23CCC4C(C)(C(=O)O)CCCC4(C)C2CC1C1C(=O)N(c2ccc(Cc4ccc(N5C(=O)C6C7CC8C9(C)CCCC(C)(C(=O)O)C9CCC8(C=C7C(C)C)C6C5=O)cc4)cc2)C(=O)C13 (stereo not given)
[1]
  TGI: 26.4 µM
[2]
  TGI: 22.1 µM
[3]
  TGI: 27.4 µM
[4]
  TGI: 26.4 µM
[5]
  TGI: > 100 µM
[6]
  TGI: 22.5 µM
[7]
  TGI: 58.8 µM
[8]
  TGI: 24.9 µM
[9]
  TGI: 33.2 µM
[10]
  TGI: 8.58 µM

## O=C(O)c1nnsc1-c1ccc(-c2snnc2C(=O)O)cc1
[1]
  TGI: > 100 µM
[2]
  TGI: > 100 µM
[3]
  TGI: > 100 µM
[4]
  TGI: > 100 µM
[5]
  TGI: 98.3 µM
[6]
  TGI: > 100 µM
[7]
  TGI: > 100 µM
[8]
  TGI: > 100 µM
[9]
  TGI: > 100 µM
[10]
  TGI: > 100 µM
